Entries after “also recorded” stand apart in the source; their conditions may differ. Like-named read-outs stand apart in the source and are kept apart here. One block for each compound: values may come before it.
What was measured:
[1] = tested on: anti-αGal antibodies (serum IgG and IgM); experiment: In vitro immobilized αGal pentasaccharide glycinamide ELISA; format: binding; conditions: baboon serum pre-incubated with oligosaccharide 1 hour 37° C.; result in words
Excerpt: In vitro immobilized αGal oligosaccharide ELISA analysis evaluation of anti-αGal antibody titer and of αGal oligosaccharides as neutralizers of anti-αGal antibodies. This example provides an assay that may be applied to determine the ability of αGal oligosaccharides and pharmaceutically acceptable derivative of the invention to bind to anti-αGal antibodies and to thereby remove these antibodies from the serum or plasma, neutralize anti-αGal antibodies, and/or target complement-mediated lytic attack to specific tissue or cell types. Such an ELISA is additionally useful in clinical monitoring of anti-αGal antibodies in blood of patients in advance of, and following xenotransplantation of organs from animals that express the αGal epitope.
The derivative of the αGal pentasaccharide (αGal pentasaccharide glycinamide) was synthesized and immobilized on N-oxysuccinimide microtiter plates (Costar) (0.5 mg/ml αGal pentasaccharide glycinamide) in bicarbonate buffer, pH 9.0, overnight at 4° C.; the plate was blocked first for 1 hour with 1M ethanolamine in the same buffer and secondly with phosphate buffered saline, pH 7.4, containing 1% bovine serum albumin and 0.05% Tween 20 and 0.02% NaN3 or PBNT. PBNT was used for all three subsequent plate washes and as a diluent for the antibodies. […] The optical density at 405 nm was recorded.

[2] = tested on: anti-αGal IgG and IgM antibodies; experiment: In vitro mouse laminin ELISA: soluble oligosaccharides as neutralizers of anti-αGal antibodies; format: binding; conditions: serum pre-incubated with oligosaccharide 1 hour 37° C.; result in words
Excerpt: In vitro laminin ELISA evaluation of αGal oligosaccharides as neutralizers of anti-αGal antibodies. Mouse laminin is a basement membrane glycoprotein that expresses 50-70 oligosaccharides terminating in Galα1-3Gal, i.e., the αGal motif (Arumugham et al., 1986, Biochem. Biophys. Aeta 883:112). In this assay, immobilization of mouse laminin on microtiter plates serves as a capture ligand for anti-αGal antibodies. […] The example provides a method by which to determine the ability of αGal oligosaccharides and pharmaceutically acceptable derivative of the invention to bind to anti-αGal antibodies and to thereby remove these antibodies from the serum, neutralize anti-αGal antibodies, and/or target anti-αGal directed complement-mediated lytic attack to specific tissue or cell types. The example also provides a method by which the effectiveness of the methods of the invention can be evaluated and dosages determined.
Sera were mixed with serial dilutions of αGal oligosaccharides (αGal-CHO) at 37° C. for 1 hour, then added to mouse laminin-coated microtiter plates and incubated for 1 hour to allow binding. The microtiter plates were coated with 20 μg/mL mouse laminin in 50 mM NaHCO3 buffer, pH 9.5 at 4° C. overnight, blocked with SuperBlock solution (Pierce) for 2 hours, and then washed 3 times with SuperBlock solution. After washing excess serum away, bound IgG and IgM was measured by adding goat anti-human IgG (or IgM) conjugated to alkaline phosphatase and incubating for 1 hour, washing, and adding substrate (pNPP).

hyperacute rejection = conditions: cited from earlier work
anti-αGal antibody [3] = conditions: Neethling et al., 1996; cited from earlier work
pig kidney cells, PK-15 = experiment: In vitro cytotoxicity of human sera on PK-15 monolayers; format: cell-based; conditions: sera of individual humans; result in words
Experimental: Sera were incubated with serial dilutions of αGal oligosaccharides at 37° C. for 1 hour, then added to αGal-expressing monolayers (pig kidney cells, PK-15) in Terasaki plates for 1 hour at 37° C. Cytotoxicity was mediated by either endogenous complement, or the sera were de-complemented (heat inactivated for 30 minutes at 56° C.) and exogenous (rabbit) complement was added. After washing away excess serum, the viable dye mix "live-dead" (calcein AM/ethidium homodimer (Molecular Probes Inc., Eugene Oreg.)) was added and monolayers were scored for viability by fluorescence microscopy.

anti-αGal antibody [4] = experiment: In vivo blood serum analysis: serum anti-αGal antibody neutralizing capacity in baboons; set-up: species or system baboon; conditions: monovalent oligosaccharide
Excerpt: Pharmokinetics of αGal trisaccharides and αGal pentasaccharides in baboons. This example presents a study of the pharmokinetic profile and serum anti-αGal antibody neutralizing capacity in baboons of αGal trisaccharides and αGal pentasaccharides and previews the compounds' suitability for use in the prevention of hyperacute rejection of porcine organs xenotransplanted into baboons.
(§1) Three Baboons were outfitted with indwelling venous and arterial catheters to the femoral vessels, and held in place with the aid of a jacket. Oligosaccharides were administered through the catheter in a 15 minute continuous infusion.

[5] = Pharmacokinetics after 15 minute intravenous bolus in baboons; format: in vivo, baboon; conditions: for clearance / half-life / Vd: baboon, plasma, iv, 500 umol/kg, 0.5 mMol/Kg 15 minute i.v. bolus; for Vd: read-out: Volume of Distribution
Experimental: The pharmacokinetics of the αGal trisaccharide compositions and the αGal pentasaccharide compositions were determined by delivering to one baboon by 15 minute intravenous bolus, 0.5 mMol/Kg of one oligosaccharide and 48 hours later, delivering 0.5 mmol/Kg of the second oligosaccharide, and for a second baboon, delivering the oligosaccharides according to the same procedure, but in the reverse order.
as §1
The clearance is used to calculate the infusion rate needed to maintain a desired drug concentration. The half-life describes how quickly concentrations diminish with time. Mathematical formulations known in the art were applied to estimate the pharmacokinetic parameters of the αGal trisaccharide and αGal pentasaccharide. […] Compared to other drugs, the volumes of distribution of these oligosaccharides are low, less than the extravascular water volume (<400 mL/kg). The clearance is typical of compounds eliminated by GFR (glomerular filtration rate).

[6] = to attain 0.5 mM steady state serum concentration
[7] = to attain 1.0 mM steady state serum concentration
[8] = to attain 2.0 mM steady state serum concentration

SMILES: CC(=O)N[C@H]1[C@H](O[C@H]2[C@@H](O)[C@@H](CO)O[C@@H](O[C@H]3[C@H](O)[C@@H](O)C(O)O[C@@H]3CO)[C@@H]2O)O[C@H](CO)[C@@H](O[C@@H]2O[C@H](CO)[C@H](O)[C@H](O)[C@H]2O)[C@@H]1O (some centres unmarked) [Galβ1-4GlcNAcβ1-3 Galβ1-4Glc]
Inhibition of anti-αGal IgG and IgM antibody binding to immobilized mouse laminin [2]: do not inhibit antibody binding

SMILES: OC[C@H]1O[C@@H](O[C@H]2[C@H](O)[C@@H](O)C(O)O[C@@H]2CO)[C@H](O)[C@@H](O)[C@H]1O (some centres unmarked) [lactose, galactoseβ1-4glucose]
Inhibition of anti-αGal IgG and IgM antibody binding to immobilized mouse laminin [2]: do not inhibit antibody binding

SMILES: OC[C@H]1O[C@H](OC[C@H]2OC(O)[C@H](O)[C@@H](O)[C@@H]2O)[C@H](O)[C@@H](O)[C@H]1O (some centres unmarked) [melibiose, Galα1-6Glu]
Prevention of hyperacute rejection on in vivo administration (hyperacute rejection; Ye et al., 1994): failed to prevent hyperacute rejection | Toxicity on in vivo administration (hyperacute rejection; necessary concentrations in pig/primate xenotransplantation): cytotoxic to other tissue; also recorded: proved highly toxic

SMILES: OC[C@H]1O[C@H](O[C@H]2[C@@H](O)[C@@H](CO)OC(O)[C@@H]2O)[C@H](O)[C@@H](O)[C@H]1O (some centres unmarked) [αGal disaccharide, Galα1-3Gal]
Neutralization of anti-αGal antibody in vitro, in words (anti-αGal antibody [3]): effective in neutralizing the anti-αGal antibody in vitro

SMILES: CC(=O)N[C@H]1C(O)O[C@H](CO)[C@@H](O[C@@H]2O[C@H](CO)[C@H](O)[C@H](O[C@H]3O[C@H](CO)[C@H](O)[C@H](O)[C@H]3O)[C@H]2O)[C@@H]1O (some centres unmarked) [αGal trisaccharide, Galα1-3Galβ1-4GlcNAc]
Inhibition of serum cytotoxicity toward PK-15 cells (pig kidney cells, PK-15): slightly better inhibitor of cytotoxicity than αGal pentasaccharide; also recorded: inhibited slightly better by the αGal trisaccharide than by the αGal pentasaccharide | Minimal serum (circulating) concentration required to inhibit hyperacute rejection / be efficacious in vivo (anti-αGal antibody [4]): ≥ 1 mM | Neutralization of anti-αGal antibody in vitro, in words (anti-αGal antibody [3]): effective in neutralizing the anti-αGal antibody in vitro | Relative effectiveness in neutralizing anti-αGal antibody in vitro (anti-αGal antibody [3]): ten times more effective than the αGal disaccharide | clearance ([5]; baboon 1003): 4.18 mL/min/kg | half-life ([5]; baboon 1003): 46.8 min | Vd ([5]; baboon 1003): 0.288 L/kg | clearance ([5]; baboon 1015): 4.88 mL/min/kg | half-life ([5]; baboon 1015): 51.5 min | Vd ([5]; baboon 1015): 0.362 L/kg | Calculated continuous infusion, total amount [5, 6]: 1.04 Kg/14 days | Calculated loading dose [5, 6]: 3.82 g/20 Kg baboon | Calculated loading dose (bolus or 15 min infusion) [5, 6]: 191 mg/kg | Calculated continuous infusion, total amount [5, 7]: 2.08 Kg/14 days | Calculated loading dose [5, 7]: 7.64 g/20 Kg baboon | Calculated loading dose (bolus or 15 min infusion) [5, 7]: 382 mg/kg | Calculated continuous infusion, total amount [5, 8]: 4.15 Kg/14 days | Calculated loading dose [5, 8]: 15.28 g/20 Kg baboon | Calculated loading dose (bolus or 15 min infusion) [5, 8]: 764 mg/kg | Inhibition of anti-αGal IgG and IgM antibody binding to immobilized mouse laminin [2]: slightly better inhibitor of IgG (FIG. 1A) and IgM (FIG. 1B) binding to laminin than αGal pentasaccharide

Next, values leading:

Inhibition of serum IgG and IgM binding to immobilized αGal pentasaccharide glycinamide [1]: minimally | Inhibition of anti-αGal IgG and IgM antibody binding to immobilized mouse laminin [2]: do not inhibit antibody binding
SMILES: OC[C@H]1O[C@@H](O[C@@H]2[C@H](O)[C@@H](O)C(O)O[C@@H]2CO)[C@H](O)[C@@H](O)[C@H]1O (some centres unmarked) [Galβ1-4Gal]

Inhibition of serum IgG and IgM binding to immobilized αGal pentasaccharide glycinamide [1]: not inhibited | Inhibition of anti-αGal IgG and IgM antibody binding to immobilized mouse laminin [2]: do not inhibit antibody binding
SMILES: OC[C@H]1O[C@@](CO)(O[C@H]2O[C@H](CO)[C@@H](O)[C@H](O)[C@H]2O)[C@@H](O)[C@@H]1O [sucrose]

Reference: patent US6096725A, “Methods of using αGal oligosaccharides as immune system targeting agents” (Neose Technologies, Inc., priority 1997, dated 2000)
